From BindingDB's records for PubMed 8863838 (Upr Centre, 1996)

Experiments:
[1] = biological target: Metabotropic glutamate receptor 2 (Homo sapiens, UniProt Q14416)
[2] = biological target: Metabotropic glutamate receptor 4 (Rattus norvegicus, UniProt P31423)
Chain of Metabotropic glutamate receptor 4 (P31423 whole entry): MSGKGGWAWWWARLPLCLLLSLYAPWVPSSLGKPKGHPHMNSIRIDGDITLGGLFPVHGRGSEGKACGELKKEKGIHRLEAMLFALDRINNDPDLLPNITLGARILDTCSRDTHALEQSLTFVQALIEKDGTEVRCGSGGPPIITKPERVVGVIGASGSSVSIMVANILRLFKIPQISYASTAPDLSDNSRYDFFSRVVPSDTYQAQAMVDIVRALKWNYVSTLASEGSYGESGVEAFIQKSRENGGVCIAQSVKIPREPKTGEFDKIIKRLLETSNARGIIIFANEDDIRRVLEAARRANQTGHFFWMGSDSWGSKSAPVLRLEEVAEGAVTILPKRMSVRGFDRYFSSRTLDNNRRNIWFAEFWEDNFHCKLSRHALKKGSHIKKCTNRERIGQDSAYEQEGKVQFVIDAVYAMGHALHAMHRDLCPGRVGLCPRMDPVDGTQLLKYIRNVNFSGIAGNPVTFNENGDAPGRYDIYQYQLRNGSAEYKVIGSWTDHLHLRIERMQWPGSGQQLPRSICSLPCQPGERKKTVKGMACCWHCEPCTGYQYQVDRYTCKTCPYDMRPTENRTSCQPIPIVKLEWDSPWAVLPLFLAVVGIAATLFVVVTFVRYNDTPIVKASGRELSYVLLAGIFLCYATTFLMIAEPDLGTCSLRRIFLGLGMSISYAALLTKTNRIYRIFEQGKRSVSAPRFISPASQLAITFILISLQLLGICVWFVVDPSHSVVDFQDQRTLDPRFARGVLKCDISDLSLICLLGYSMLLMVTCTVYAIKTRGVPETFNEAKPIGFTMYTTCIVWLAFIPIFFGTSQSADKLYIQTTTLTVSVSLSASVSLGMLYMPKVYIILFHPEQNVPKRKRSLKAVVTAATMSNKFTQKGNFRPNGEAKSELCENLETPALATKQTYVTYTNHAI

Chain of Metabotropic glutamate receptor 2 (Q14416 whole entry): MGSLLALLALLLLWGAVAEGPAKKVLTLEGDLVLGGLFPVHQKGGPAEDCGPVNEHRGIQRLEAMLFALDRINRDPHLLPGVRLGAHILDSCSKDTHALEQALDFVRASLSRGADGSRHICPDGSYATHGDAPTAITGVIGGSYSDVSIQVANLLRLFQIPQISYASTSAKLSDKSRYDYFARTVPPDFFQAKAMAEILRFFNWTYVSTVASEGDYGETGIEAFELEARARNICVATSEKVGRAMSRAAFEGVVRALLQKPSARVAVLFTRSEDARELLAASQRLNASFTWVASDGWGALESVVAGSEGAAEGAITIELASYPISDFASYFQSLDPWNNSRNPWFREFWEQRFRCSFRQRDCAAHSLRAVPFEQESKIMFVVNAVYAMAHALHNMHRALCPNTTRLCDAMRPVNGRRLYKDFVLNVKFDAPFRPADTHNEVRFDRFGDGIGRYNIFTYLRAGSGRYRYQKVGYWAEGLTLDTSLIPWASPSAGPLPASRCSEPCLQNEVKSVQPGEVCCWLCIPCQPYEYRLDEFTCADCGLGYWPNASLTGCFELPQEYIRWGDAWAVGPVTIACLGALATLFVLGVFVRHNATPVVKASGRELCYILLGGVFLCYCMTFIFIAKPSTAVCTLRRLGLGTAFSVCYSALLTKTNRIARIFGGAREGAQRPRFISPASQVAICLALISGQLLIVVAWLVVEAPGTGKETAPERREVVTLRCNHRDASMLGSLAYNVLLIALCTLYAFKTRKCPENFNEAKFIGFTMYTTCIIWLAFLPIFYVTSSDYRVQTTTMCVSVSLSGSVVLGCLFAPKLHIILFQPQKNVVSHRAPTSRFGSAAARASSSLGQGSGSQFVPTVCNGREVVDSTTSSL

| Compound | Ki [1] [µM] | Ki [2] [µM] |
| --- | --- | --- |
| CC(N)(C(=O)O)c1ccc(-n2cnnn2)cc1 (stereo not drawn) [NSC_5311456] | > 10 | – |
| NC(C(=O)O)c1cc(=O)[nH]o1 (stereo not drawn) [Amino-(3-hydroxy-isoxazol-5-yl)-acetic acid(Ibotenic acid)] | – | > 10 |
| NC(C(=O)O)c1ccc(C(=O)O)c(O)c1 (stereo not drawn) | > 10 | – |
| CC(N)(CCP(=O)(O)O)C(=O)O (stereo not drawn) [NSC_1795545] | > 10 | > 10 |
| C[C@](N)(C(=O)O)C1C[C@@H]1C(=O)O (stereo partly drawn) [MCCG-I] | > 10 | – |
| N[C@H](C(=O)O)[C@H]1C[C@@H]1C(=O)O [(1S,2S)-2-((S)-Amino-carboxy-methyl)-cyclopropanecarboxylic acid] | 0.49 | 8.9 |
| NC(C(=O)O)c1ccc(C(=O)O)cc1 (stereo not drawn) [4-(Amino-carboxy-methyl)-benzoic acid] | > 10 | – |
| CC(N)(C(=O)O)c1ccc(P(=O)(O)O)cc1 (stereo not drawn) | > 10 | > 10 |
| N[C@@H](COP(=O)(O)O)C(=O)O | – | 2.3 |
| C[C@@](N)(C(=O)O)c1ccc(C(=O)O)cc1 (racemic) | > 10 | – |
| N[C@@H](CCC(=O)O)C(=O)O [L-Glutamic acid] | – | > 10 |
| CC(N)(C(=O)O)c1ccc(S(=O)(=O)O)cc1 (stereo not drawn) [NSC_3964410] | > 10 | > 10 |
| N[C@@H](CCP(=O)(O)O)C(=O)O | – | 0.4 |
| N[C@@]1(C(=O)O)CC[C@H](C(=O)O)C1 [1S, 3R-ACPD] | > 10 | > 10 |
| N[C@@H](Cn1oc(=O)[nH]c1=O)C(=O)O [2-amino-3-(3,5-dioxo[1,2,4]oxadiazolidin-2-yl)propionic acid] | > 10 | > 10 |
| N[C@@]1(C(=O)O)CC[C@H](CC(=O)O)C1 [(1S,3S)-HOMO-ACPD] | > 10 | > 10 |
